Measured values reported in BindingDB's records for doi:10.1016/j.bmcl.2008.01.016 (Merck Research Laboratories, 2008).
pIC50: −log10 of the molar value.

Test: Antagonist activity at human CCR2 assessed as inhibition of MCP1-induced monocyte chemotaxis

pIC50: 8.60
SMILES: C[C@H]1CN([C@@H]2CC[C@@]3(CCO[C@H]3OCc3cc(F)cc(C(F)(F)F)c3)C2)CC[C@@]12C=Cc1ccccc12
